What was measured:
MCF7 [1] = assay: Induction of apoptosis in human MCF7 cells assessed as necrotic cells at 2.5 uM incubated for 48 hrs by Annexin-V-FITC/PI staining based flow cytometric analysis (reference value: 0.18 %); assay type: functional
[2] = Half-life in Sprague-Dawley rat at 10 mg/kg, po by LC-MS/MS analysis; assay type: ADME, organism-based; conditions: in vivo
MCF7 [3] = assay: Induction of cell cycle arrest in human MCF7 cells assessed as decrease in G1 phase cells at 2.5 uM measured after 48 hrs by flow cytometry analysis (reference value: 56.9 %); assay type: functional; parameters: scale not given: the % may be the effect or the level left
[4] = Plasma stability in human assessed as compound remaining at 100 uM measured after 60 mins by LC-MS/MS analysis relative to control; assay type: ADME, cell-free; conditions: read-out: Stability
MCF7 [5] = assay: Induction of cell cycle arrest in human MCF7 cells assessed as less G1 phase cells at 0.50 uM measured after 48 hrs by flow cytometry analysis (reference value: 0.44 %); assay type: functional; conditions: dose 0.5 µM
MCF7 [6] = assay: Induction of cell cycle arrest in human MCF7 cells assessed as decrease in G1 phase cells at 0.50 uM measured after 48 hrs by flow cytometry analysis (reference value: 56.9 %); assay type: functional; parameters: scale not given: the % may be the effect or the level left; conditions: dose 0.5 µM
MCF7 [7] = assay: Induction of apoptosis in human MCF7 cells assessed as early apoptotic cells at 0.25 uM incubated for 48 hrs by Annexin-V-FITC/PI staining based flow cytometric analysis (reference value: 2.83 %); assay type: functional
MCF7 [8] = assay: Induction of cell cycle arrest in human MCF7 cells assessed as S phase cells at 2.5 uM measured after 48 hrs by flow cytometry analysis (reference value: 9.31 %); assay type: functional
MCF7 [9] = assay: Induction of cell cycle arrest in human MCF7 cells assessed as less G1 phase cells at 0.25 uM measured after 48 hrs by flow cytometry analysis (reference value: 0.44 %); assay type: functional
MCF7 [10] = assay: Induction of cell cycle arrest in human MCF7 cells assessed as decrease in G1 phase cells at 0.25 uM measured after 48 hrs by flow cytometry analysis (reference value: 56.9 %); assay type: functional; parameters: scale not given: the % may be the effect or the level left
MCF7 [11] = assay: Induction of cell cycle arrest in human MCF7 cells assessed as S phase cells at 0.10 uM measured after 48 hrs by flow cytometry analysis (reference value: 9.31 %); assay type: functional; conditions: dose 0.1 µM
MCF7 [12] = assay: Induction of apoptosis in human MCF7 cells assessed as late apoptotic cells at 0.50 uM incubated for 48 hrs by Annexin-V-FITC/PI staining based flow cytometric analysis (reference value: 0.019 %); assay type: functional; conditions: dose 0.5 µM
MCF7 [13] = assay: Induction of cell cycle arrest in human MCF7 cells assessed as decrease in G1 phase cells at 0.10 uM measured after 48 hrs by flow cytometry analysis (reference value: 56.9 %); assay type: functional; parameters: scale not given: the % may be the effect or the level left; conditions: dose 0.1 µM
MCF7 [14] = assay: Induction of apoptosis in human MCF7 cells assessed as viable cells at 0.10 uM incubated for 48 hrs by Annexin-V-FITC/PI staining based flow cytometric analysis (reference value: 97 %); assay type: functional; conditions: dose 0.1 µM
MCF7 [15] = assay: Induction of cell cycle arrest in human MCF7 cells assessed as greater G1 phase cells at 2.5 uM measured after 48 hrs by flow cytometry analysis (reference value: 0.78 %); assay type: functional
[16] = Metabolic stability in human liver microsomes assessed as compound remaining at 100 uM measured after 60 mins by LC-MS/MS analysis; assay type: ADME, Microsome; conditions: read-out: Stability
MCF7 [17] = assay: Induction of apoptosis in human MCF7 cells assessed as viable cells at 0.50 uM incubated for 48 hrs by Annexin-V-FITC/PI staining based flow cytometric analysis (reference value: 97 %); assay type: functional; conditions: dose 0.5 µM
MCF7 [18] = assay: Induction of apoptosis in human MCF7 cells assessed as necrotic cells at 0.50 uM incubated for 48 hrs by Annexin-V-FITC/PI staining based flow cytometric analysis (reference value: 0.18 %); assay type: functional; conditions: dose 0.5 µM
CYP1A2 = target: T1, CYP1A2 (Homo sapiens, UniProt P05177); assay: Inhibition of CYP1A2 in human liver microsomes at 10 uM preincubated for 10 mins followed by addition of NADPH-regenerating system and measured after 15 mins by LC-MS/MS analysis relative to control; assay type: ADME, Microsome; conditions: time 25 min
T1 sequence (P05177 whole entry): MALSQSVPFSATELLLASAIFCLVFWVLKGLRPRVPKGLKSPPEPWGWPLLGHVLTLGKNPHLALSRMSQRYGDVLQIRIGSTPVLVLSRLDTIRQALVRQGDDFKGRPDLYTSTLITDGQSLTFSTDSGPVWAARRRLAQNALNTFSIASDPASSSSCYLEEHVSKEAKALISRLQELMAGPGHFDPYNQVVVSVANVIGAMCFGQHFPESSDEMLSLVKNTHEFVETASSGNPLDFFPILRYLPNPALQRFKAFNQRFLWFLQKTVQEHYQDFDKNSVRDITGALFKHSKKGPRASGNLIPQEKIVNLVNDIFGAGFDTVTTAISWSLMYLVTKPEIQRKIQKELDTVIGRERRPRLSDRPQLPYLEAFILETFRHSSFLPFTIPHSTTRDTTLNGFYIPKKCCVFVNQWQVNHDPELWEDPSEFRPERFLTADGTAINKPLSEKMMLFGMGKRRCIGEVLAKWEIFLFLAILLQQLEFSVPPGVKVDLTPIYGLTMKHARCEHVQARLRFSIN

MCF7 [19] = assay: Induction of apoptosis in human MCF7 cells assessed as total apoptotic cells at 0.50 uM incubated for 48 hrs by Annexin-V-FITC/PI staining based flow cytometric analysis relative to control; assay type: functional; conditions: dose 0.5 µM
MCF7 [20] = assay: Induction of cell cycle arrest in human MCF7 cells assessed as greater G1 phase cells at 0.50 uM measured after 48 hrs by flow cytometry analysis (reference value: 0.78 %); assay type: functional; conditions: dose 0.5 µM
MCF7 [21] = assay: Induction of apoptosis in human MCF7 cells assessed as total apoptotic cells at 1 uM incubated for 48 hrs by Annexin-V-FITC/PI staining based flow cytometric analysis relative to control; assay type: functional
MCF7 [22] = assay: Induction of cell cycle arrest in human MCF7 cells assessed as S phase cells at 0.50 uM measured after 48 hrs by flow cytometry analysis (reference value: 9.31 %); assay type: functional; conditions: dose 0.5 µM
MCF7 [23] = assay: Induction of cell cycle arrest in human MCF7 cells assessed as G2 phase cells at 1 uM measured after 48 hrs by flow cytometry analysis (reference value: 31.8 %); assay type: functional
[24] = Volume of distribution at steady state in Sprague-Dawley rat at 3 mg/kg, iv by LC-MS/MS analysis; assay type: ADME, organism-based; conditions: in vivo, read-out: Vdss
MCF7 [25] = assay: Induction of cell cycle arrest in human MCF7 cells assessed as decrease in G1 phase cells at 1 uM measured after 48 hrs by flow cytometry analysis (reference value: 56.9 %); assay type: functional; parameters: scale not given: the % may be the effect or the level left
MCF7 [26] = assay: Induction of cell cycle arrest in human MCF7 cells assessed as less G1 phase cells at 2.5 uM measured after 48 hrs by flow cytometry analysis (reference value: 0.44 %); assay type: functional
[27] = MRT in Sprague-Dawley rat at 10 mg/kg, po by LC-MS/MS analysis; assay type: ADME, organism-based; conditions: in vivo
[28] = Metabolic stability in human liver microsomes assessed as half-life at 100 uM measured upto 60 mins in the presence of NADPH by LC-MS/MS analysis; assay type: ADME, Microsome
MCF7 [29] = assay: Induction of apoptosis in human MCF7 cells assessed as late apoptotic cells at 1 uM incubated for 48 hrs by Annexin-V-FITC/PI staining based flow cytometric analysis (reference value: 0.019 %); assay type: functional

## Cc1cc(Nc2nc(NCc3ccc(F)cc3F)nc3c2cnn3C2CCOCC2)n[nH]1
MCF7 [1]
  Activity: 0.98%
[2]
  half-life: 1.75 h
MCF7 [3]
  Activity: 9.8%
[4]
  remaining at 1 h, 100 µM: 99.2%
MCF7 [5]
  Activity: 0.71%
MCF7 [6]
  Activity: 36.2%
MCF7 [7]
  Activity: 24.8%
MCF7 [8]
  Activity: 21.6%
MCF7 [9]
  Activity: 8.49%
MCF7 [10]
  Activity: 43.6%
MCF7 [11]
  Activity: 7.46%
MCF7 [12]
  Activity: 7.58%
MCF7 [13]
  Activity: 53.4%
MCF7 [14]
  Activity: 74.9%
MCF7 [15]
  Activity: 0.87%
[16]
  remaining at 1 h, 100 µM: 106%
MCF7 [17]
  Activity: 32.2%
MCF7 [18]
  Activity: 0.56%
CYP1A2
  inhibition at 0.25 h, 10 µM: 21.2%
MCF7 [19]
  Activity: 67.28%
MCF7 [20]
  Activity: 1.34%
MCF7 [21]
  Activity: 71.84%
MCF7 [22]
  Activity: 16.9%
MCF7 [23]
  Activity: 58.3%
[24]
  Vd: 3.02 L/kg
MCF7 [25]
  Activity: 21.5%
MCF7 [26]
  Activity: 0.39%
[27]
  MRT: 3.13 h
[28]
  half-life at 100 µM: 0.493 h
MCF7 [29]
  Activity: 6.84%
